According to patent publication US20160361329A1, “COMPOUNDS FOR TREATMENT OF COMPLEMENT MEDIATED DISORDERS” (Achillion Pharmaceuticals, Inc., priority 2014, published 2016):

Biological target: T1, Human factor D (Homo sapiens, UniProt P00746)
T1 construct: purified from human serum; purchased Complement Technology, Inc; host or cells: human serum
Test: Human Factor D Assay
Assay type: biochemical
Conditions: Human factor D 80 nM, substrate Z-L-Lys-SBzl and DTNB, pH 7.5
Method: Other standard factor D inhibition assays are also available.
Human factor D (purified from human serum, Complement Technology, Inc.) at 80 nM final concentration is incubated with test compound at various concentrations for 5 minutes at room temperature in 50 mM Tris, 1M NaCl, pH 7.5. A synthetic substrate Z-L-Lys-SBzl and DTNB (Ellman's reagent) are added to final concentrations of 100 μM each. The increase in color is recorded at OD405 nm in a microplate in kinetic mode over 30 minutes with 30 second time points in a spectrofluorimeter. IC50 values are calculated by non-linear regression from the percentage of inhibition of complement factor D activity as a function of test compound concentration.

T1 sequence (P00746 26-253): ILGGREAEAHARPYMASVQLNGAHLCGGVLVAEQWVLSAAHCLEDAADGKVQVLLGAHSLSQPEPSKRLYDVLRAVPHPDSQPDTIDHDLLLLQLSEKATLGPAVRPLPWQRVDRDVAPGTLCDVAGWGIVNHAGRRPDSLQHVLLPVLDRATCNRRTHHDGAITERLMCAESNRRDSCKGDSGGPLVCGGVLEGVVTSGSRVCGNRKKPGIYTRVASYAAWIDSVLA

Compound | IC50 [nM]
[2H]C([2H])(NC(=O)[C@@H]1C[C@H]2C[C@H]2N1C(=O)Cn1nc(C(N)=O)c2ccncc21)c1cccc(Cl)c1F [Compound 127, (1R,3S,5R)-2-(2-(3-carbamoyl-1H-pyrazolo[3,4-c]pyridin-1-yl)acetyl)-2-azabicyclo[3.1.0]hexane-3-carboxammide, N-(3-chloro-2-fluorophenylmethyl-d2)] | < 1000
CCOP(=O)(OCC)c1nn(CC(=O)N2C[C@H](F)C[C@H]2C(=O)NCc2cccc(Cl)c2F)c2cnccc12 [Compound 53, diethyl 1-(2-((2S,4R)-2-(3-chloro-2-fluorobenzylcarbamoyl)-4-fluoropyrrolidin-1-yl)-2-oxoethyl)-1H-pyrazolo[3,4-c]pyridin-3-ylphosphonate] | 1000 to 10000
O=C(NCc1cccc(Cl)c1F)[C@@H]1C[C@@H](F)CN1C(=O)CC1=Nc2ccccc2S(=O)(=O)N1 [Compound 49, (2S,4R)-N-(3-chloro-2-fluorobenzyl)-1-(2-(1,1-dioxido-2H-benzo[e][1,2,4]thiadiazin-3-yl)acetyl)-4-fluoropyrrolidine-2-carboxamide] | 1000 to 10000
CC(=NC#N)c1cn(CC(=O)N2C[C@H](F)C[C@H]2C(=O)NCc2cccc(Cl)c2F)c2ccccc12 [Compound 32, (2S,4R)-N-(3-chloro-2-fluorobenzyl)-1-(2-(3-(1-(cyanoimino)ethyl)-1H-indol-1-yl)acetyl)-4-fluoropyrrolidine-2-carboxamide] | 1000 to 10000
CC(=O)c1cn(CC(=O)N2CC3(C[C@H]2C(=O)Nc2cccc(OC(F)(F)F)c2F)OCCO3)c2cc(O)ccc12 [Compound 41, (S)-7-(2-(3-acetyl-6-hydroxy-1H-indol-1-yl)acetyl)-N-(2-fluoro-3-(trifluoromethoxy)phenyl)-1,4-dioxa-7-azaspiro[4.4]nonane-8-carboxamide] | 1000 to 10000
NC(c1cn(CC(=O)N2C[C@H](F)C[C@H]2C(=O)NCc2cccc(Cl)c2F)c2ccccc12)C(F)(F)F (stereo partly drawn) [Compound 78, (2S,4R)-1-(2-(3-(1-amino-2,2,2-trifluoroethyl)-1H-indol-1-yl)acetyl)-N-(3-chloro-2-fluorobenzyl)-4-fluoropyrrolidine-2-carboxamide] | 1000 to 10000
CCOP(=O)(O)c1nn(CC(=O)N2C[C@H](F)C[C@H]2C(=O)NCc2cccc(Cl)c2F)c2cnccc12 [Compound 60, ethyl hydrogen 1-(2-((2S,4R)-2-(3-chloro-2-fluorobenzylcarbamoyl)-4-fluoropyrrolidin-1-yl)-2-oxoethyl)-1H-pyrazolo[3,4-c]pyridin-3-ylphosphonate] | 1000 to 10000
[2H]C([2H])(NC(=O)[C@@H]1C[C@@H](F)CN1C(=O)Cn1nc(C(N)=O)c2ccncc21)c1cccc(Cl)c1F [Compound 128, (2S,4R)-1-(2-(3-carbamoyl-1H-pyrazolo[3,4-c]pyridin-1-yl)acetyl)-4-fluoropyrrolidine-2-carboxamide, N-(3-chloro-2-fluorophenylmethyl-d2)] | < 1000
NC(=O)n1cc(NC(=O)N2C[C@H](F)C[C@H]2c2nc3cc(Cl)ccc3[nH]2)c2ccccc21 [Compound 14, 3-((2S,4R)-2-(5-chloro-1H-benzo[d]imidazol-2-yl)-4-fluoropyrrolidine-1-carboxamido)-1H-indole-1-carboxamide] | 1000 to 10000
CCOP(=O)(OCC)c1cc(Cl)cc(NC(=O)[C@@H]2C[C@@H](F)CN2C(=O)Cn2cc(C(C)=O)c3ccccc32)c1 [Compound 59, diethyl 3-((2S,4R)-1-(2-(3-acetyl-1H-indol-1-yl)acetyl)-4-fluoropyrrolidine-2-carboxamido)-5-chlorophenylphosphonate] | 1000 to 10000
CC(=O)c1ccc(CC(=O)N2C[C@H](F)C[C@H]2C(=O)NCc2cccc(Cl)c2F)c2ccccc12 [Compound 58, (2S,4R)-1-(2-(4-acetylnaphthalen-1-yl)acetyl)-N-(3-chloro-2-fluorobenzyl)-4-fluoropyrrolidine-2-carboxamide] | 1000 to 10000
CC(=O)c1cn(CC(=O)N2C[C@H](F)C[C@H]2C(=O)NC2CCc3ccccc32)c2ccccc12 (some centres unmarked) [Compound 42] | 1000 to 10000
NC(=O)n1cc(NC(=O)N2c3ccccc3C[C@H]2C(=O)NCc2cccc(Cl)c2F)c2ccccc21 [Compound 2, (S)-N1-(1-carbamoyl-1H-indol-3-yl)-N2-(3-chloro-2-fluorobenzyl)indoline-1,2-dicarboxamide] | 1000 to 10000
CC(=O)c1cn(CC(=O)N2C[C@H](F)C[C@H]2C(=O)NC2CCc3c(Cl)cccc32)c2ccccc12 (stereo partly drawn) [Compound 44, (2S,4R)-1-(2-(3-acetyl-1H-indol-1-yl)acetyl)-N-(4-chloro-2,3-dihydro-1H-inden-1-yl)-4-fluoropyrrolidine-2-carboxamide] | 1000 to 10000
C=C[C@@H]1C[C@]1(NC(=O)[C@@H]1C[C@@H](F)CN1C(=O)Cn1cc(C(C)=O)c2ccc(O)cc21)C(=O)NS(=O)(=O)C1CC1 [Compound 64, (2S,4R)-1-(2-(3-acetyl-6-hydroxy-1H-indol-1-yl)acetyl)-N-((1R,2S)-1-(cyclopropylsulfonyl-carbamoyl)-2-vinylcyclopropyl)-4-fluoropyrrolidine-2-carboxamide] | 1000 to 10000
CC(=O)c1cn(CC(=O)N2[C@@H]3CCCC[C@@H]3C[C@H]2C(=O)NCc2cccc(Cl)c2F)c2cc(O)ccc12 [Compound 66, (2S,3aR,7aR)-1-(2-(3-acetyl-6-hydroxy-1H-indol-1-yl)acetyl)-N-(3-chloro-2-fluorobenzyl)octahydro-1H-indole-2-carboxamide] | 1000 to 10000
CC(=O)c1cn(CC(=O)N2C[C@H](F)C[C@H]2c2ncc(-c3cccc(Br)n3)[nH]2)c2ccccc12 [Compound 13, 2-(3-acetyl-1H-indol-1-yl)-1-((2S,4R)-2-(5-(6-bromopyridin-2-yl)-1H-imidazol-2-yl)-4-fluoropyrrolidin-1-yl)ethanone] | 1000 to 10000
COc1cccc2c1c(C(C)=O)cn2CC(=O)N1C[C@H](F)C[C@H]1C(=O)Nc1cccc(-c2ccccc2Cl)c1F [Compound 96, (2S,4R)-1-(2-(3-acetyl-4-methoxy-1H-indol-1-yl)acetyl)-N-(2′-chloro-2-fluorobiphenyl-3-yl)-4-fluoropyrrolidine-2-carboxamide] | 1000 to 10000
CC(=O)c1cn(CC(=O)N2C[C@H](F)C[C@H]2c2ncc(-c3cccc(Br)n3)[nH]2)c2cc(O)ccc12 [Compound 40, 2-(3-acetyl-6-hydroxy-1H-indol-1-yl)-1-((2S,4R)-2-(5-(6-bromopyridin-2-yl)-1H-imidazol-2-yl)-4-fluoropyrrolidin-1-yl)ethanone] | 1000 to 10000
NC(=O)n1cc(NC(=O)[C@@H]2CCC[C@H]2C(=O)NCc2cccc(Cl)c2F)c2ccccc21 [Compound 23, (1R,2R)-N1-(1-carbamoyl-1H-indol-3-yl)-N2-(3-chloro-2-fluorobenzyl)cyclopentane-1,2-dicarboxamide] | 1000 to 10000
NC(=O)n1cc(NC(=O)N2C[C@H](F)C[C@H]2c2ncc(-c3cccc(Cl)c3)[nH]2)c2ccccc21 [Compound 10, 3-((2S,4R)-2-(5-(3-chlorophenyl)-1H-imidazol-2-yl)-4-fluoropyrrolidine-1-carboxamido)-1H-indole-1-carboxamide] | 1000 to 10000
NC(=O)n1cc(NC(=O)N2C[C@H](F)C[C@H]2c2ncc(-c3cccc(Br)n3)[nH]2)c2ccccc21 [Compound 12, 3-((2S,4R)-2-(5-(6-bromopyridin-2-yl)-1H-imidazol-2-yl)-4-fluoropyrrolidine-1-carboxamido)-1H-indole-1-carboxamide] | 1000 to 10000
CS(=O)(=O)N1CCc2c(n(CC(=O)N3C[C@H](F)C[C@H]3C(=O)NCc3cccc(Cl)c3F)c3ccccc23)C1 [Compound 69, (2S,4R)-N-(3-chloro-2-fluorobenzyl)-4-fluoro-1-(2-(2-(methylsulfonyl)-3,4-dihydro-1H-pyrido[3,4-b]indol-9(2H)-yl)acetyl)pyrrolidine-2-carboxamide] | 1000 to 10000
